# How the values were obtained:
# [1] = target: human TYK2 (JH2domain-pseudokinase) (Homo sapiens (Human), UniProt P29597); test: TYK2 JH2 Domain Binding Assay (KINOMEscan)
# In short: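 Kds, run in duplicate, came from Hill fits (slope fixed at −1) of an 11-point 3-fold dilution series starting at 30,000 nM. Bead-retained TYK2 JH2 (aa G556–D888)–NFkB DBD fusion, DNA-tagged and expressed in HEK293 cells, was read by qPCR after 1 h room-temperature binding in 0.9% DMSO.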
# [2] = target: Tyk2/JAK2 (heterodimeric complex) (Homo sapiens (Human), UniProt P29597); test: IL-12 Induced pSTAT4 in Human PBMC; format: cell-based; conditions: 1.7 ng/mL IL-12
# Description: The IL-12 Induced pSTAT4 assay evaluates the inhibition of IL-12 induced STAT4 phophorylation mediated by Tyk2/JAK2 (heterodimeric complex).
# [3] = target: JAK2 kinase domain (JH1) (Homo sapiens (Human), UniProt O60674); test: JAK2 Radioactive Kinase Assay; format: biochemical; conditions: compound at 10 μM; ATP 10 μM; read-out: JAK2 JH1% Inhibition @ 10 μM
# In short: (§1)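 Each kinase domain is incubated with test compound at 10 μM. Activity is then measured radiometrically and expressed as percent inhibition relative to uninhibited enzyme.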
# [4] = target: Tyk2 kinase domain (DH1) (Homo sapiens (Human), UniProt P29597); test: Tyk2 Radioactive Kinase Assay; format: biochemical; conditions: compound at 10 μM; ATP 10 μM; read-out: Tyk2 JH1% Inhibition @ 10 μM
# In short: as §1
# [5] = target: JAK2/JAK2 homdimeric complex (Homo sapiens (Human), UniProt O60674); test: GM-CSF Induced pSTAT5 in Human PBMC; format: cell-based; conditions: GM-CSF 5 ng/mL for 20 minutes, pSTAT5 by MSD, read-out: PBMC_GMCSF_pSTAT5 IC50
# Chain of JAK2/JAK2 homdimeric complex (O60674 whole entry): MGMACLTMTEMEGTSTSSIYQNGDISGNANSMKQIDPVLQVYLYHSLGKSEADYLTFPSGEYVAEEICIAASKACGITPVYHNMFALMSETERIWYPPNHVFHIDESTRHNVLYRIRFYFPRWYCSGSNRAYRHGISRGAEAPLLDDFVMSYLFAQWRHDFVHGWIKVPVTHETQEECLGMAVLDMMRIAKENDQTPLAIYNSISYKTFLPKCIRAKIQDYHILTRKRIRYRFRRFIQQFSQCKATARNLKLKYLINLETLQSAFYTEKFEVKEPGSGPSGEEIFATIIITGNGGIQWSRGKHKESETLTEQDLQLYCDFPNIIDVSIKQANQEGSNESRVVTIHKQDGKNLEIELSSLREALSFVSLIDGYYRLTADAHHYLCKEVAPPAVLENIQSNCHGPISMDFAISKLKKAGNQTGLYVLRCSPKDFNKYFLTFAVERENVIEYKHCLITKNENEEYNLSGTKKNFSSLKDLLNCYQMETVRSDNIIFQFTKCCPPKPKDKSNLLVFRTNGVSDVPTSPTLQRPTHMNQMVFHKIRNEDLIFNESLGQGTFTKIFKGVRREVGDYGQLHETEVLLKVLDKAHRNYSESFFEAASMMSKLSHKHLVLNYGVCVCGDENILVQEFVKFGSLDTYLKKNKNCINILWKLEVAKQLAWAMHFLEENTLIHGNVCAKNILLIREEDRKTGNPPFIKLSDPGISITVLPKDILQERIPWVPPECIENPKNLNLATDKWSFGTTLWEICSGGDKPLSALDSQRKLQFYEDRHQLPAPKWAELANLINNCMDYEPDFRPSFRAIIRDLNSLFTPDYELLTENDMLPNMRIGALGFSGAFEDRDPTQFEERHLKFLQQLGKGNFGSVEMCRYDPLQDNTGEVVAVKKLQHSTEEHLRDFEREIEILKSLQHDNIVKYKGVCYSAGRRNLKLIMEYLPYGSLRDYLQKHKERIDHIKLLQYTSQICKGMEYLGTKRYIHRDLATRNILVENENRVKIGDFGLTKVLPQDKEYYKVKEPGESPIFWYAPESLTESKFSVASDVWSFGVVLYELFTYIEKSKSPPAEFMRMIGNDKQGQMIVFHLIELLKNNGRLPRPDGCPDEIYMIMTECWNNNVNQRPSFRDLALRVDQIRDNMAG
# Chain of JAK2/JAK2 homdimeric complex (P32927 17-897 partner): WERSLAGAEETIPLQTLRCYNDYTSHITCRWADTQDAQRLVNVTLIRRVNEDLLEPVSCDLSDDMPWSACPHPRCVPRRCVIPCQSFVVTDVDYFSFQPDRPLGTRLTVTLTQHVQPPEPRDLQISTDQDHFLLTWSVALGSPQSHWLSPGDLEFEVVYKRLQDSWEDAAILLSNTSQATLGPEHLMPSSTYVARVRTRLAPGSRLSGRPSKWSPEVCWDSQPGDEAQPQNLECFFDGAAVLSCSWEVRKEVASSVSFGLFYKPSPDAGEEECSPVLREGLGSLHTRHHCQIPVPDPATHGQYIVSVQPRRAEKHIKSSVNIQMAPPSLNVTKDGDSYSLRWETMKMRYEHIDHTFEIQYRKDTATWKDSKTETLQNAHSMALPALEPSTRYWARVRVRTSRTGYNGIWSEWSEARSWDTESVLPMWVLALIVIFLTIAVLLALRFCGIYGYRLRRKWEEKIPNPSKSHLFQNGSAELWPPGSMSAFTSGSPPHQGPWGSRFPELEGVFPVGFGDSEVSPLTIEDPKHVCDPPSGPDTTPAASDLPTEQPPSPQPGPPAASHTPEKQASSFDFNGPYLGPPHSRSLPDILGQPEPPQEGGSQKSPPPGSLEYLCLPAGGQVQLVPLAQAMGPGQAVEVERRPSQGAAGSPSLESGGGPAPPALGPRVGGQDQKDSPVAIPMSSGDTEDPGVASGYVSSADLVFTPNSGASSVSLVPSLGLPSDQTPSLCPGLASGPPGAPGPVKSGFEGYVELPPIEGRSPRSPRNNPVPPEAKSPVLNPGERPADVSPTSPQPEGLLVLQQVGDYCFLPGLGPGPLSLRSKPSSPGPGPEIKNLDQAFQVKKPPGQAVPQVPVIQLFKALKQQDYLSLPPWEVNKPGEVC
# Chain of Tyk2 kinase domain (DH1) (P29597 897-1176): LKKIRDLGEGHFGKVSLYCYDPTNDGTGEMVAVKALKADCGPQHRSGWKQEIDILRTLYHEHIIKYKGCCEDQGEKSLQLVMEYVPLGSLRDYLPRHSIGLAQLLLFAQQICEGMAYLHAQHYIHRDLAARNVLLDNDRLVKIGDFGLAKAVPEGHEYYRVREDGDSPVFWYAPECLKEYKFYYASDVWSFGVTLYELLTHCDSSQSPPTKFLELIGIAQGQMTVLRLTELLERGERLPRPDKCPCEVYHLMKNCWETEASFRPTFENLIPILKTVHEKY
# Chain of human TYK2 (JH2domain-pseudokinase) (P29597 556-888): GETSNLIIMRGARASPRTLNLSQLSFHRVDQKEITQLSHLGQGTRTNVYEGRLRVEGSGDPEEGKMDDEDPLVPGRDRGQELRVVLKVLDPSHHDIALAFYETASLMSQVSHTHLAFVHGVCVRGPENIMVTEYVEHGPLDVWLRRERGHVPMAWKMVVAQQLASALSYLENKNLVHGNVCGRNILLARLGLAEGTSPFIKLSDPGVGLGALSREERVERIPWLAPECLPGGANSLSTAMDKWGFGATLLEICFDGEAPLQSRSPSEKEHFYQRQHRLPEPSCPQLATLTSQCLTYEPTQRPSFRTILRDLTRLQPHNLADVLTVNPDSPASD
# Chain of Tyk2/JAK2 (heterodimeric complex) (P29597 whole entry, other chains not shown): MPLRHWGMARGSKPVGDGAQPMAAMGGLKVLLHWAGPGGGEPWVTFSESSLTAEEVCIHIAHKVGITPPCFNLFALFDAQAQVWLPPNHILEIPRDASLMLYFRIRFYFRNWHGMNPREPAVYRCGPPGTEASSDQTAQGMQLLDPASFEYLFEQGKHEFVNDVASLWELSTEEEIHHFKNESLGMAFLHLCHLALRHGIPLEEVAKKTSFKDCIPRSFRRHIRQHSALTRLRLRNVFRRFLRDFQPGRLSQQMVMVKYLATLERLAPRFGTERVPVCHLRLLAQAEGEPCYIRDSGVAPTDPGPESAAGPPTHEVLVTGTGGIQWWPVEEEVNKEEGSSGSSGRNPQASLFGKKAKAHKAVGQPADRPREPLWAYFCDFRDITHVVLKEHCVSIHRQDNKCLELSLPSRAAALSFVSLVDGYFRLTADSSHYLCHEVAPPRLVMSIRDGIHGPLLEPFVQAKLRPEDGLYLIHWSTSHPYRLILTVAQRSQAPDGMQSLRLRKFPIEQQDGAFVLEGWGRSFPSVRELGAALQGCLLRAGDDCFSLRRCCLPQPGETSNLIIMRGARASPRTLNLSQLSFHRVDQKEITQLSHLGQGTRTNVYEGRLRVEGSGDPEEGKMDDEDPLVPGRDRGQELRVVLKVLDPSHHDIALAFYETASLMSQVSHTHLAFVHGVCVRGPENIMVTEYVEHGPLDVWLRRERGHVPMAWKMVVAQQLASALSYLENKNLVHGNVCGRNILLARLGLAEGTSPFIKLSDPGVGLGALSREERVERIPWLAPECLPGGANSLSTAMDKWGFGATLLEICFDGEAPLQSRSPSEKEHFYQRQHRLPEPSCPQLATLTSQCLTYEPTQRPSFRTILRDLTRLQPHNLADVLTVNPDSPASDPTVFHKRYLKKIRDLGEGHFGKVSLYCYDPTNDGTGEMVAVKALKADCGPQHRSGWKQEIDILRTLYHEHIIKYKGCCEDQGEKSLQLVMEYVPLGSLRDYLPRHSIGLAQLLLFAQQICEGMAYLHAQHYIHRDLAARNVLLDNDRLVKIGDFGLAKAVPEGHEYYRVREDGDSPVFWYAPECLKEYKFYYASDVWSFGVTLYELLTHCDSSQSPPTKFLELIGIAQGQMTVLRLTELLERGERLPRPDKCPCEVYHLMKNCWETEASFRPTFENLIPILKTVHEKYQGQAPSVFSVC
# Chain of JAK2 kinase domain (JH1) (O60674 849-1124): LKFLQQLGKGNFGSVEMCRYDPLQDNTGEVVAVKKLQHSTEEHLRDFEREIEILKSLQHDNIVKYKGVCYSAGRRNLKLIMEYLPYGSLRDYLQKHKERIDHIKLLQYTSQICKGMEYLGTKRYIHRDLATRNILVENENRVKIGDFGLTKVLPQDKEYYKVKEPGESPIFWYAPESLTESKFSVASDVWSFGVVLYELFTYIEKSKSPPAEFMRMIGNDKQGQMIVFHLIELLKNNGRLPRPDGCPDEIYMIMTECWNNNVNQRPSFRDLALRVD
Structure (SMILES),Kd [1],IC50 [2],inhibition at 10 µM [3],inhibition at 10 µM [4],IC50 [5]
CNc1cc(Nc2cc(C)cn(-c3cnn(C)c3)c2=O)nc2c(C(N)=O)cnn12 [I-31],< 0.2 nM,100 to 500 nM,< 50%,< 50%,> 300 nM
CCn1cc(Cl)cc(Nc2cc(NC)n3ncc(C(N)=O)c3n2)c1=O [I-35],< 0.2 nM,< 100 nM,< 50%,< 50%,> 300 nM
"CNc1cc(-c2c[nH]c3c(C)cc(C)cc23)nc2c(C(N)=O)cnn12 [I-36, 5-(5,7-dimethyl-1H-indol-3-yl)-7-(methylamino)pyrazolo[1,5-a]pyrimidine-3-carboamide]",< 0.2 nM,< 100 nM,< 50%,< 50%,> 12500 nM
CNc1cc(Nc2cccc(N3CCCC3=O)n2)nc2c(C(N)=O)cnn12 [I-47],< 0.2 nM,< 100 nM,< 50%,< 50%,> 300 nM
CNc1cc(Nc2cccnc2OC(C)C)nc2c(C(N)=O)cnn12 [I-72],< 0.2 nM,100 to 500 nM,< 50%,< 50%,> 12500 nM
CNc1cc(Nc2cccc(N3CCCC3=O)n2)nc2c(C(=O)NC3CCC3)cnn12 [I-94],< 0.2 nM,< 100 nM,< 50%,< 50%,> 50000 nM
CNc1cc(Nc2cccn(-c3cnc(C(C)(C)O)cn3)c2=O)nc2c(C(=O)NC3CCC3)cnn12 [I-95],< 0.2 nM,< 100 nM,< 50%,< 50%,> 50000 nM
CNc1cc(Nc2cccc(N3CCOC3=O)n2)nc2c(C(=O)NC3CCC3)cnn12 [I-105],< 0.2 nM,< 100 nM,50 to 70%,< 50%,> 12500 nM
CNc1cc(Nc2cccnc2OC)nc2c(C(=O)N[C@H]3C[C@H]3F)cnn12 [I-110],< 0.2 nM,< 100 nM,< 50%,< 50%,> 50000 nM
CNc1cc(Nc2cccn(-c3ccc(F)cn3)c2=O)nc2c(C(=O)N[C@H]3C[C@H]3F)cnn12 [I-115],< 0.2 nM,< 100 nM,< 50%,< 50%,> 12500 nM
CCOc1ccc(-n2cccc(Nc3cc(NC)n4ncc(C(=O)N[C@H]5C[C@H]5F)c4n3)c2=O)nn1 [I-117],< 0.2 nM,< 100 nM,< 50%,< 50%,> 2500 nM
CNc1cc(Nc2cccn(-c3ccc(C(=O)N4CCCC4)cn3)c2=O)nc2c(C(=O)NC3CCC3)cnn12 [I-121],< 0.2 nM,100 to 500 nM,< 50%,< 50%,> 12500 nM
CNc1cc(Nc2cccn(-c3cnc(C(=O)N(C)C)cn3)c2=O)nc2c(C(=O)NC3CCC3)cnn12 [I-122],< 0.2 nM,< 100 nM,< 50%,< 50%,> 2500 nM
CNc1cc(Nc2cccn(-c3cccc(C(C)(C)O)n3)c2=O)nc2c(C(=O)N[C@H]3C[C@H]3F)cnn12 [I-123],< 0.2 nM,< 100 nM,< 50%,< 50%,> 50000 nM
CNc1cc(Nc2cccn(-c3cnc(C(=O)N(C)C)cn3)c2=O)nc2c(C(=O)N[C@H]3C[C@H]3F)cnn12 [I-126],< 0.2 nM,< 100 nM,< 50%,< 50%,> 50000 nM
"CNc1cc(Nc2cccn(-c3cnc(C(=O)N(C)C)cn3)c2=O)nc2c(C(=O)NC3CC3)cnn12 [I-127, N-cyclopropyl-5-((1-(5-(dimethylcarbamoyl)pyrazin-2-yl)-2-oxo-1,2-dihydropyridin-3-yl)amino)-7-(methylamino)pyrazolo[1,5-a]pyrimidine-3-carboxamide]",< 0.2 nM,< 100 nM,< 50%,< 50%,> 12500 nM
CNc1cc(Nc2cccn(-c3cccc(C)n3)c2=O)nc2c(C(=O)N[C@H]3C[C@H]3F)cnn12 [I-131],1 to 10 nM,< 100 nM,< 50%,< 50%,> 12500 nM
CNc1cc(Nc2cccn(-c3ccc(F)cc3)c2=O)nc2c(C(=O)N[C@H]3C[C@H]3F)cnn12 [I-132],< 0.2 nM,< 100 nM,< 50%,< 50%,> 2500 nM
"CCn1cc(Cl)cc(Nc2cc(NC)n3ncc(C(=O)NC4CC4)c3n2)c1=O [I-133, 5-((5-chloro-1-ethyl-2-oo-1,2-dihydropyridin-3-yl)amino)-N-cyclopropyl-7-(methylamino)pyrazolo[1,5-a]pyrimidine-3-carboxamide]",< 0.2 nM,< 100 nM,< 50%,< 50%,> 12500 nM

Structure (SMILES),Kd [1],IC50 [2],inhibition at 10 µM [3],inhibition at 10 µM [4],IC50 [5]
CNc1cc(Nc2cccn(-c3ccc(N4CCOCC4)cc3)c2=O)nc2c(C(=O)N[C@H]3C[C@H]3F)cnn12 [I-135],< 0.2 nM,< 100 nM,< 50%,< 50%,> 2500 nM
CNc1cc(Nc2cccn(-c3cc(C)n(C)n3)c2=O)nc2c(C(=O)NC3CCC3)cnn12 [I-136],< 0.2 nM,< 100 nM,< 50%,< 50%,> 2500 nM
CNc1cc(Nc2cccn(-c3cc(C)n(C)n3)c2=O)nc2c(C(=O)N[C@H]3C[C@H]3F)cnn12 [I-137],< 0.2 nM,< 100 nM,< 50%,< 50%,> 50000 nM
CNc1cc(Nc2cccn(-c3cc(C)n(C)n3)c2=O)nc2c(C(=O)NC3CC3)cnn12 [I-138],< 0.2 nM,< 100 nM,< 50%,< 50%,> 50000 nM
CNc1cc(Nc2cccn(-c3ccn(C)n3)c2=O)nc2c(C(=O)NC3CCC3)cnn12 [I-139],< 0.2 nM,< 100 nM,< 50%,< 50%,> 50000 nM
CNc1cc(Nc2cccn(-c3ccc(C)nn3)c2=O)nc2c(C(=O)NC3CCC3)cnn12 [I-141],< 0.2 nM,< 100 nM,< 50%,< 50%,> 50000 nM
CNc1cc(Nc2cccnc2OC(C)C)nc2c(C(=O)NC3CCC3)cnn12 [I-145],< 0.2 nM,100 to 500 nM,< 50%,< 50%,> 50000 nM
CNc1cc(Nc2cccnc2OC(C)C)nc2c(C(=O)N[C@H]3C[C@H]3F)cnn12 [I-147],< 0.2 nM,< 100 nM,< 50%,< 50%,> 50000 nM
CNc1cc(Nc2cccnc2OC(F)F)nc2c(C(=O)NC3CCC3)cnn12 [I-151],< 0.2 nM,< 100 nM,< 50%,< 50%,> 50000 nM
CNc1cc(Nc2cccnc2OC(F)F)nc2c(C(=O)N[C@H]3C[C@H]3F)cnn12 [I-153],< 0.2 nM,< 100 nM,50 to 70%,< 50%,> 12500 nM
CNc1cc(Nc2cccnc2OC(F)F)nc2c(C(=O)NC3CC3)cnn12 [I-154],0.2 to 1 nM,< 100 nM,50 to 70%,< 50%,> 12500 nM
CNc1cc(Nc2cccn(-c3cccc(C(C)(C)O)n3)c2=O)nc2c(C(=O)NC3CCC3)cnn12 [I-156],< 0.2 nM,< 100 nM,< 50%,< 50%,> 12500 nM
CNc1cc(Nc2cccn(-c3ccon3)c2=O)nc2c(C(=O)NC3CCC3)cnn12 [I-158],< 0.2 nM,< 100 nM,< 50%,< 50%,> 50000 nM
CNc1cc(Nc2cccn(-c3cc(C)on3)c2=O)nc2c(C(=O)NC3CCC3)cnn12 [I-160],< 0.2 nM,< 100 nM,< 50%,< 50%,> 12500 nM
CNc1cc(Nc2cccn(-c3cc(C)on3)c2=O)nc2c(C(=O)N[C@H]3C[C@H]3F)cnn12 [I-161],< 0.2 nM,< 100 nM,< 50%,< 50%,> 12500 nM
CNc1cc(Nc2cccn(-c3cc(C)on3)c2=O)nc2c(C(=O)NC3CC3)cnn12 [I-162],< 0.2 nM,< 100 nM,< 50%,< 50%,> 2500 nM
CNc1cc(Nc2cccn(-c3ccc(N4CCOCC4)cn3)c2=O)nc2c(C(=O)NC3CCC3)cnn12 [I-163],0.2 to 1 nM,< 100 nM,< 50%,< 50%,> 2500 nM
CNc1cc(Nc2cc(Cl)cn(-c3ccc(C)nn3)c2=O)nc2c(C(=O)N[C@H]3C[C@H]3F)cnn12 [I-164],< 0.2 nM,< 100 nM,< 50%,< 50%,> 50000 nM

# — patent publication US10508120B2, “TYK2 inhibitors and uses thereof” (Nimbus Lakshmi, Inc., priority 2017, dated 2019)
